Test results taken from patent US20250145609A1, “3-SUBSTITUTED PYRIDAZINE COMPOUNDS AS SMARCA2 AND/OR SMARCA4 DEGRADERS” (Aurigene Oncology Limited, priority 2022, published 2025).
pEC50: −log10 of the molar value.

Legend:
Format in all cases: cell-based
VCaP cells = assay: Anti proliferative activity in VCaP cell line by CellTiter Glo assay; conditions: Homo sapiens; for pEC50: VCaP, 192 h, 8 days incubation, CellTiter Glo luminescence
Protocol: Example-P1: Determination of Anti Proliferative Activity of Compounds in Cell Lines VCaP by Cell Titer Glo©(Promega) Assay
VCaP (ATCC CRL-2876) cells were seeded in 96 well plate flat black clear bottom plates (Corning, Cat. No 3904) using complete DMEM Medium. Next day, compounds listed in the present invention were added to cells from 10 mM stocks made in DMSO (Sigma Cat no. D2650). Each concentration of compound was tested in triplicate with DMSO concentration at a final percentage not exceeding 0.3 in the cells. After the incubation of VCaP cells with compound for 8 days assay was terminated using 50 μl of CellTiter Glo© reagent (Promega, Cat. no G7572). CellTiter-Glo® Luminescent reagent determines the number of viable cells based on quantitation of ATP present which is an indicator of cell number and metabolic activity. Luminescence readings were taken in Victor-3 instrument. Percent inhibition of proliferation was calculated using formula, % inhibition=100−(luminescence value of test/luminescence value of DMSO control)*100. DMSO control (0%)=Cells in complete media with DMSO; blank=Media alone containing DMSO. EC50 was calculated using graph pad prism software.
Herein the group “A” refers to EC50 values lower than l0 nM, group “B” refers to EC50 values between l0 nM-100 nM (both inclusive) and group “C” refers to EC50 values greater than 100 nM.

SMARCA2 = target: T1, SMARCA2 (Homo sapiens, UniProt P51531); assay: SMARCA2 degradation in VCaP cells by Western blot; conditions: at 100 nM, 16 hours
T1 construct: endogenous in cells; host or cells: VCaP (ATCC CRL-2876)
Protocol: (§1) Example-P2: Determination of SMARCA2 and SMARCA4 Degradation in VCaP Cells by Western Blot
(§2) VCaP (ATCC CRL-2876) was plated in 6 well plates using complete Dulbecco's Modified Eagle's Medium. On the third day, compounds of present invention were added to cells from 10 mM stocks made in DMSO (Sigma Cat no. D2650). Each compound was tested at 100 nM concentration with DMSO not exceeding final percentage of 0.3 in the cells. Cells were incubated with the compound for 16 hours followed by harvesting with 1×RIPA lysis buffer (Thermo Fischer, catalogue number #89900) containing protease inhibitor cocktail (Sigma catalogue number #P-8340). Equal amount of protein was loaded on SDS PAGE gel for electrophoresis. Western blot was carried out for detection of either SMARCA2 (Cell signalling technologies, catalogue number #11966) or SMARCA4 antibody (Cell signalling technologies, catalogue number #52251). Beta-Tubulin antibody (Cell signalling technologies, catalogue number #86298) was used as loading control. Percentage of SMARCA2 or SMARCA4 degradation was calculated by using formula: […]

SMARCA4 = target: T2, SMARCA4 (Homo sapiens, UniProt P51532); assay: SMARCA4 degradation in VCaP cells by Western blot; conditions: at 100 nM; for Percent SMARCA4 degradation at 0.1 µM: VCaP, 16 h
T2 construct: endogenous in cells; host or cells: VCaP (ATCC CRL-2876)
Protocol: as §1, §2

T2 sequence (P51532 whole entry): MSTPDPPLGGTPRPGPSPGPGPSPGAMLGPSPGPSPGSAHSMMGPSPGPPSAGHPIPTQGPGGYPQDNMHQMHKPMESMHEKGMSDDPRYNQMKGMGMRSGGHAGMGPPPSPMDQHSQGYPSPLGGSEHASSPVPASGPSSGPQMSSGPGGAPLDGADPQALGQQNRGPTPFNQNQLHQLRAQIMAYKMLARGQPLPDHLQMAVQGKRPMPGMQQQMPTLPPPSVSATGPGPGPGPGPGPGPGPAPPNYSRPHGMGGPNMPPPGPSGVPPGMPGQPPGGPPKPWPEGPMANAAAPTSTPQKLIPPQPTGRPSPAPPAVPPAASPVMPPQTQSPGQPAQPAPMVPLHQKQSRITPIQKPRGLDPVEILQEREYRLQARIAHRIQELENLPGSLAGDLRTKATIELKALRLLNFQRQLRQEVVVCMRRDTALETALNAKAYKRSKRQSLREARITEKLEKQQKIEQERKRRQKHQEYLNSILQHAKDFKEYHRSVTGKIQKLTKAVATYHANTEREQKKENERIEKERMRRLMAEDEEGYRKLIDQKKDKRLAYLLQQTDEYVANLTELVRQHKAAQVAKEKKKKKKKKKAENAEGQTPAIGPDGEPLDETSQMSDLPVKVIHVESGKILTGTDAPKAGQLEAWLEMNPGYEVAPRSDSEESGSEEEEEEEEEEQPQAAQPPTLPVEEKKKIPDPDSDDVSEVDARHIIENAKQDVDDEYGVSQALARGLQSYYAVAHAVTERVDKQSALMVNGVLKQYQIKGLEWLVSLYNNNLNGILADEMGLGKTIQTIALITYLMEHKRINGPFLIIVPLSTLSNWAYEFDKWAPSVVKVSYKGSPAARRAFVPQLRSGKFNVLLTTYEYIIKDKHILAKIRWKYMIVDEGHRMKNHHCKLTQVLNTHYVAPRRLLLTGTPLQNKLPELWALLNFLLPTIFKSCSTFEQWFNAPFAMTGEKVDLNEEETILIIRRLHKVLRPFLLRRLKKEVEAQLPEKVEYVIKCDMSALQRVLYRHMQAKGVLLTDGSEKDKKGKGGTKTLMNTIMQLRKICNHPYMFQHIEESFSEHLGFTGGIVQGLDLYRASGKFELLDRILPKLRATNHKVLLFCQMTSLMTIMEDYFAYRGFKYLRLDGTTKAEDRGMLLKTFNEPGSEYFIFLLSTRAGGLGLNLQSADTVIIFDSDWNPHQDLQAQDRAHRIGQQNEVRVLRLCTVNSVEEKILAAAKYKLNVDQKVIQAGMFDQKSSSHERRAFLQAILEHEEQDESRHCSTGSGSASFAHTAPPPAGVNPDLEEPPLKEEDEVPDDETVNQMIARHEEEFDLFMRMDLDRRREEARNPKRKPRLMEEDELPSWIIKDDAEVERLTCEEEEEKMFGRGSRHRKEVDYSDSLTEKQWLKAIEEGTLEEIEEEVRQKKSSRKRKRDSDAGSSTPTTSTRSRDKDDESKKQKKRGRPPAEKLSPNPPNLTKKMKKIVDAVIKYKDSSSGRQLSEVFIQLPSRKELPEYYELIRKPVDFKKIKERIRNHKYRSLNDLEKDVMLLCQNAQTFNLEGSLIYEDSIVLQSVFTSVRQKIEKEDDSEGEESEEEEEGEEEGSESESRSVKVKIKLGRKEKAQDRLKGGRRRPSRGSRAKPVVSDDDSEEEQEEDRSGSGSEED
T1 sequence (P51531 whole entry): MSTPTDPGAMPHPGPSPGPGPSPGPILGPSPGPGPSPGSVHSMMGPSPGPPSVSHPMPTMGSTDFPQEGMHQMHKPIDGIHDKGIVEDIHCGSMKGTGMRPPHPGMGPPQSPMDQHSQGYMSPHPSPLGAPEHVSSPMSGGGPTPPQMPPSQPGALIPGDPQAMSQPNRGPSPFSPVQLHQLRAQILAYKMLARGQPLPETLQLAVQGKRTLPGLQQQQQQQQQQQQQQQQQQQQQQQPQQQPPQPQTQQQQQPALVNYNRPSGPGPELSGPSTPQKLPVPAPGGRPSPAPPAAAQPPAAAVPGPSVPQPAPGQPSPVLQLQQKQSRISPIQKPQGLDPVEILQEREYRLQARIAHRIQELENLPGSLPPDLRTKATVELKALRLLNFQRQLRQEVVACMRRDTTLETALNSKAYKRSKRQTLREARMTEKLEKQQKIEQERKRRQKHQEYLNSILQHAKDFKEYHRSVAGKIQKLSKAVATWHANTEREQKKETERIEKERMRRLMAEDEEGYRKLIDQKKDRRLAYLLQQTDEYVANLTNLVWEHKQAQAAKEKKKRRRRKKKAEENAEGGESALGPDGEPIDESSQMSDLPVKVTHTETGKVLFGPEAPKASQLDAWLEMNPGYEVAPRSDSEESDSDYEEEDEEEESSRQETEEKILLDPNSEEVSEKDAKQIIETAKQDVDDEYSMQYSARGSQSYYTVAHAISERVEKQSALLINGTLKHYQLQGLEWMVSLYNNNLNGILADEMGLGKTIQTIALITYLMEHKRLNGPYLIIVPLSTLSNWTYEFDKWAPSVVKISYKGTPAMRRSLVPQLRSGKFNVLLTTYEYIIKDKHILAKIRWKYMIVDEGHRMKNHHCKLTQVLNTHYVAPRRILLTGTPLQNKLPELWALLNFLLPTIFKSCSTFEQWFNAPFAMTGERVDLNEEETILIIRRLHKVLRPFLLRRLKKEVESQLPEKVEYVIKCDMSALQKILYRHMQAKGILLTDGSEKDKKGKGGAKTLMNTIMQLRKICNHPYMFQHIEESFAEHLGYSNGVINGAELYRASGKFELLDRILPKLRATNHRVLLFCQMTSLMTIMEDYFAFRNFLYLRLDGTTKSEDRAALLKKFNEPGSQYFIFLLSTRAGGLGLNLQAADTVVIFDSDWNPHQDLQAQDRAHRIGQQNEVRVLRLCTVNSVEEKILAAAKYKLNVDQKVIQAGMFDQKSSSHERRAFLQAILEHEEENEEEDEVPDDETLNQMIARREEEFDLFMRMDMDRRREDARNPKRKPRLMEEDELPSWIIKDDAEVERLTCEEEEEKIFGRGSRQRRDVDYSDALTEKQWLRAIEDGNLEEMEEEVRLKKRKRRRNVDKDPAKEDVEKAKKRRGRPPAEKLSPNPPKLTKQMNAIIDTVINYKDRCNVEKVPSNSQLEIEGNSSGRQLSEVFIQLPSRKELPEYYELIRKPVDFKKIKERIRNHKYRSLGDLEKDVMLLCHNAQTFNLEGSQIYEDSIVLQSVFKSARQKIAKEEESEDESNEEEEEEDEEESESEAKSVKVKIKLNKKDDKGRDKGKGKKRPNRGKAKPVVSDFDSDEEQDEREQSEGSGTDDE

Row | SMILES | pEC50 (VCaP cells) | Percent degradation SMARCA2 (SMARCA2) [%] | Percent SMARCA4 degradation at 0.1 µM (SMARCA4) [%] | Percent degradation SMARCA4 (SMARCA4; 16 hours) [%] | inhibition at 1 µM (VCaP cells; at 1 μM, read-out: % inhibition of proliferation) [%]
1 | Cc1ncsc1-c1ccc([C@H](C)NC(=O)[C@@H]2C[C@@H](O)CN2C(=O)[C@@H](NC(=O)COc2ccc(-c3cc(-c4cc(F)ccc4O)nnc3N)cc2)C(C)(C)C)cc1 [Compound 1, (2S,4R)-1-((S)-2-(2-(4-(3-amino-6-(5-fluoro-2-hydroxyphenyl)pyridazin-4-yl)phenoxy)acetamido)-3,3-dimethylbutanoyl)-4-hydroxy-N—((S)-1-(4-(4-methylthiazol-5-yl)phenyl)ethyl)pyrrolidine-2-carboxamide] | 7.00 to 8.00 |  |  |  | 
2 | Cc1ncsc1-c1ccc([C@H](C)NC(=O)[C@@H]2C[C@@H](O)CN2C(=O)C(N2CCC(N3CCN(c4ccc(-c5cc(-c6ccccc6O)nnc5N)cc4)CC3)CC2)C(C)(C)C)cc1 (stereo partly drawn) [Compound 60, (2S,4R)-1-(2-(4-(4-(4-(3-amino-6-(2-hydroxyphenyl)pyridazin-4-yl)phenyl)piperazin-1-yl)piperidin-1-yl)-3,3-dimethylbutanoyl)-4-hydroxy-N—((S)-1-(4-(4-methylthiazol-5-yl)phenyl)ethyl)pyrrolidine-2-carboxamide] | < 7.00 |  |  |  | 20
3 | Cc1ncsc1-c1ccc([C@H](C)NC(=O)[C@@H]2C[C@@H](O)CN2C(=O)[C@@H](NC(=O)CN2CCC(c3ccc(-c4cc(-c5cc(F)ccc5O)nnc4N)cc3)CC2)C(C)(C)C)cc1 [Compound 31, (2S,4R)-1-((S)-2-(2-(4-(4-(3-amino-6-(5-fluoro-2-hydroxyphenyl)pyridazin-4-yl)phenyl)piperidin-1-yl)acetamido)-3,3-dimethylbutanoyl)-4-hydroxy-N-((S)-1-(4-(4-methylthiazol-5-yl)phenyl)ethyl)pyrrolidine-2-carboxamide] | 7.00 to 8.00 | 99 | 90 |  | 
4 | Cc1ncsc1-c1ccc([C@H](C)NC(=O)[C@@H]2C[C@@H](O)CN2C(=O)[C@@H](NC(=O)CN2CCC(c3ccc(-c4cc(-c5ccccc5O)nnc4N)cc3)CC2C)C(C)(C)C)cc1 (single isomer, unassigned) [Compound 36] | > 8.00 | 99 | 86 |  | 
5 | Cc1ncsc1-c1ccc([C@H](C)NC(=O)[C@@H]2C[C@@H](O)CN2C(=O)[C@@H](NC(=O)CN2CCN(c3ccc(-c4cc(-c5ccccc5O)nnc4N)c(F)c3)CC2)C(C)(C)C)cc1 [Compound 28, (2S,4R)-1-((S)-2-(2-(4-(4-(3-amino-6-(2-hydroxyphenyl)pyridazin-4-yl)-3-fluorophenyl)piperazin-1-yl)acetamido)-3,3-dimethylbutanoyl)-4-hydroxy-N—((S)-1-(4-(4-methylthiazol-5-yl)phenyl)ethyl)pyrrolidine-2-carboxamide] | 7.00 to 8.00 | 96 | 67 |  | 
6 | Cc1ncsc1-c1ccc([C@H](C)NC(=O)[C@@H]2C[C@@H](O)CN2C(=O)[C@@H](NC(=O)CN2CCC(O)(c3ccc(-c4cc(-c5ccccc5O)nnc4N)cc3)CC2)C(C)(C)C)cc1 [Compound 48, (2S,4R)-1-((S)-2-(2-(4-(4-(3-amino-6-(2-hydroxyphenyl)pyridazin-4-yl)phenyl)-4-hydroxypiperidin-1-yl)acetamido)-3,3-dimethylbutanoyl)-4-hydroxy-N-((S)-1-(4-(4-methylthiazol-5-yl)phenyl)ethyl)pyrrolidine-2-carboxamide] | 7.00 to 8.00 | 97 | 20 |  | 
7 | Cc1ncsc1-c1ccc([C@H](C)NC(=O)[C@@H]2C[C@@H](O)CN2C(=O)[C@@H](NC(=O)C2CCC(c3ccc(-c4cc(-c5ccccc5O)nnc4N)cc3)CC2)C(C)(C)C)cc1 (single isomer, unassigned) [Compound 42] | > 8.00 | 99 |  | 94 | 
8 | Cc1ncsc1-c1ccc([C@H](C)NC(=O)[C@@H]2C[C@@H](O)CN2C(=O)C(C(C)C)n2cc(-c3ccc(-c4cc(-c5ccccc5O)nnc4N)cc3)cn2)cc1 (stereo partly drawn) [Compound 11, (2S,4R)-1-(2-(4-(4-(3-amino-6-(2-hydroxyphenyl)pyridazin-4-yl)phenyl)-1H-pyrazol-1-yl)-3-methylbutanoyl)-4-hydroxy-N—((S)-1-(4-(4-methylthiazol-5-yl)phenyl)ethyl)pyrrolidine-2-carboxamide] | 7.00 to 8.00 | 98 | 51 |  | 
9 | Cc1ncsc1-c1ccc([C@H](C)NC(=O)[C@@H]2C[C@@H](O)CN2C(=O)C(c2cc(-c3ccc(-c4cc(-c5ccccc5O)nnc4N)cc3)no2)C(C)C)cc1 (stereo partly drawn) [Compound 4, (2S,4R)-1-(2-(3-(4-(3-amino-6-(2-hydroxyphenyl)pyridazin-4-yl)phenyl)isoxazol-5-yl)-3-methylbutanoyl)-4-hydroxy-N—((S)-1-(4-(4-methylthiazol-5-yl)phenyl)ethyl)pyrrolidine-2-carboxamide] |  | 98 | 11 |  | 
10 | Cc1ncsc1-c1ccc([C@H](C)NC(=O)[C@@H]2C[C@@H](O)CN2C(=O)[C@H](c2cc(-c3ccc(-c4cc(-c5ccccc5O)nnc4N)cc3)no2)C(C)C)cc1 [Compound 5, (2S,4R)-1-((S)-2-(3-(4-(3-amino-6-(2-hydroxyphenyl)pyridazin-4-yl)phenyl)isoxazol-5-yl)-3-methylbutanoyl)-4-hydroxy-N—((S)-1-(4-(4-methylthiazol-5-yl)phenyl)ethyl)pyrrolidine-2-carboxamide] |  | 57 | 62 |  | 

More lines, main results first:

Row | pEC50 (VCaP cells) | Percent degradation SMARCA2 (SMARCA2) [%] | Percent SMARCA4 degradation at 0.1 µM (SMARCA4) [%] | Percent degradation SMARCA4 (SMARCA4; 16 hours) [%] | SMILES | inhibition at 1 µM (VCaP cells; at 1 μM, read-out: % inhibition of proliferation) [%]
11 | > 8.00 | 95 | 96 |  | Cc1ncsc1-c1ccc([C@H](C)NC(=O)[C@@H]2C[C@@H](O)CN2C(=O)C(c2cc(OCCOc3ccc(-c4cc(-c5ccccc5O)nnc4N)cc3)no2)C(C)C)cc1 (stereo partly drawn) [Compound 24, (2S,4R)-1-(2-(3-(2-(4-(3-amino-6-(2-hydroxyphenyl)pyridazin-4-yl)phenoxy)ethoxy)isoxazol-5-yl)-3-methylbutanoyl)-4-hydroxy-N—((S)-1-(4-(4-methylthiazol-5-yl)phenyl)ethyl)pyrrolidine-2-carboxamide] | 
12 | > 8.00 |  |  |  | Cc1ncsc1-c1ccc([C@H](C)NC(=O)[C@@H]2C[C@@H](O)CN2C(=O)C(c2cc(N3CCC(N4CCN(c5ccc(-c6cc(-c7ccccc7O)nnc6N)cc5)CC4)CC3)no2)C(C)C)cc1 (stereo partly drawn) [Compound 59, (2S,4R)-1-(2-(3-(4-(4-(4-(3-amino-6-(2-hydroxyphenyl)pyridazin-4-yl)phenyl)piperazin-1-yl)piperidin-1-yl)isoxazol-5-yl)-3-methylbutanoyl)-4-hydroxy-N—((S)-1-(4-(4-methylthiazol-5-yl)phenyl)ethyl)pyrrolidine-2-carboxamide] | 
13 | 7.00 to 8.00 | 100 | 91 |  | Cc1ncsc1-c1ccc([C@H](C)NC(=O)[C@@H]2C[C@@H](O)CN2C(=O)[C@@H](NC(=O)CC2CCN(c3ccc(-c4cc(-c5ccccc5O)nnc4N)cc3)CC2)C(C)(C)C)cc1 [Compound 38, (2S,4R)-1-((S)-2-(2-(1-(4-(3-amino-6-(2-hydroxyphenyl)pyridazin-4-yl)phenyl)piperidin-4-yl)acetamido)-3,3-dimethylbutanoyl)-4-hydroxy-N-((S)-1-(4-(4-methylthiazol-5-yl)phenyl)ethyl)pyrrolidine-2-carboxamide] | 
14 |  | 99 | 97 |  | Cc1ncsc1-c1ccc([C@H](C)NC(=O)[C@@H]2C[C@@H](O)CN2C(=O)[C@@H](NC(=O)CN2CCC(Nc3ccc(-c4cc(-c5ccccc5O)nnc4N)cc3)CC2)C(C)(C)C)cc1 [Compound 54, (2S,4R)-1-((S)-2-(2-(4-((4-(3-amino-6-(2-hydroxyphenyl)pyridazin-4-yl)phenyl)amino)piperidin-1-yl)acetamido)-3,3-dimethylbutanoyl)-4-hydroxy-N—((S)-1-(4-(4-methylthiazol-5-yl)phenyl)ethyl)pyrrolidine-2-carboxamide] | 
15 |  | 42 | 0 |  | Cc1ncsc1-c1ccc([C@H](C)NC(=O)[C@@H]2C[C@@H](O)CN2C(=O)[C@@H](NC(=O)C(C)N2CCC(c3ccc(-c4cc(-c5ccccc5O)nnc4N)cc3)CC2)C(C)(C)C)cc1 (single isomer, unassigned) [Compound 33] | 
